Test results published in patent US10501522B2, “Peptides and combination of peptides for use in immunotherapy against various tumors” (IMMATICS BIOTECHNOLOGIES GMBH, priority 2015, dated 2019).

tested on: CD8+ T cells; test: In vitro T-cell priming assay with aAPCs loaded with peptide/MHC and anti-CD28, pMHC multimer readout; format: cell-based, human; settings: in vitro immunogenicity, HLA-A*02 restricted peptides; percentage of positive wells (among evaluable)
Text: In order to obtain information regarding the immunogenicity of the TUMAPs of the present invention, the inventors performed investigations using an in vitro T-cell priming assay based on repeated stimulations of CD8+ T cells with artificial antigen presenting cells (aAPCs) loaded with peptide/MHC complexes and anti-CD28 antibody.
In order to perform in vitro stimulations by artificial antigen presenting cells loaded with peptide-MHC complex (pMHC) and anti-CD28 antibody, the inventors first isolated CD8+ T cells from fresh HLA-A*02 leukapheresis products via positive selection using CD8 microbeads (Miltenyi Biotec, Bergisch-Gladbach, Germany) of healthy donors obtained from the University clinics Mannheim, Germany, after informed consent. PBMCs and isolated CD8+ lymphocytes were incubated in T-cell medium (TCM) until use consisting of RPMI-Glutamax (Invitrogen, Karlsruhe, Germany) supplemented with 10% heat inactivated human AB serum (PAN-Biotech, Aidenbach, Germany), 100 U/ml Penicillin/100 μg/ml Streptomycin (Cambrex, Cologne, Germany), 1 mM sodium pyruvate (CC Pro, Oberdorla, Germany), 20 μg/ml Gentamycin (Cambrex). 2.5 ng/ml IL-7 (PromoCell, Heidelberg, Germany) and 10 U/ml IL-2 (Novartis Pharma, Nürnberg, Germany) were also added to the TCM at this step. Generation of pMHC/anti-CD28 coated beads, T-cell stimulations and readout was performed in a highly defined in vitro system using four different pMHC molecules per stimulation condition and 8 different pMHC molecules per readout condition.
The purified co-stimulatory mouse IgG2a anti human CD28 Ab 9.3 (Jung et al., 1987) was chemically biotinylated using Sulfo-N-hydroxysuccinimidobiotin as recommended by the manufacturer (Perbio, Bonn, Germany). Beads used were 5.6 μm diameter streptavidin coated polystyrene particles (Bangs Laboratories, Illinois, USA).
pMHC used for positive and negative control stimulations were A*0201/MLA-001 (peptide […] (SEQ ID NO. 289) from modified Melan-A/MART-1) and A*0201/DDX5-001 ([…] from DDX5, SEQ ID NO. 290), respectively.
800.000 beads/200 μl were coated in 96-well plates in the presence of 4×12.5 ng different biotin-pMHC, washed and 600 ng biotin anti-CD28 were added subsequently in a volume of 200 μl. Stimulations were initiated in 96-well plates by co-incubating […] CD8+ T cells with 2×10^5 washed coated beads in 200 μl TCM supplemented with 5 ng/ml IL-12 (PromoCell) for 3 days at 37° C. Half of the medium was then exchanged by fresh TCM supplemented with 80 U/ml IL-2 and incubating was continued for 4 days at 37° C. This stimulation cycle was performed for a total of three times. For the pMHC multimer readout using 8 different pMHC molecules per condition, a two-dimensional combinatorial coding approach was used as previously described (Andersen et al., 2012) with minor modifications encompassing coupling to 5 different fluorochromes. Finally, multimeric analyses were performed by staining the cells with Live/dead near IR dye (Invitrogen, Karlsruhe, Germany), CD8-FITC antibody clone SK1 (BD, Heidelberg, Germany) and fluorescent pMHC multimers. For analysis, a BD LSRII SORP cytometer equipped with appropriate lasers and filters was used. Peptide specific cells were calculated as percentage of total CD8+ cells. Evaluation of multimeric analysis was done using the FlowJo software (Tree Star, Oreg., USA). In vitro priming of specific multimer+ CD8+ lymphocytes was detected by comparing to negative control stimulations.

| Substance | Wells positive [%] |
| --- | --- |
| 9 (SLITGQDLLSV; listed as Homo sapiens) [compound 9] | + (<20% = +) |
| 97 (KLFEKSTGL; listed as Homo sapiens) [compound 97] | + (<20% = +) |
| 50 (ILLSVLHQL; listed as Homo sapiens) [compound 50] | + (<20% = +) |
| 254 (ALGDKFLLRV; listed as Homo sapiens) [compound 254] | + (<20% = +) |
| 121 (ALYVQAPTV; listed as Homo sapiens) [compound 121] | + (<20% = +) |
| 263 (SIIEYLPTL; listed as Homo sapiens) [compound 263] | + (<20% = +) |
| 35 (VIIKGLEEI; listed as Homo sapiens) [compound 35] | + (<20% = +) |
| 4 (VLFGELPAL; listed as Homo sapiens) [compound 4] | + (<20% = +) |
| 242 (KLQEEIPVL; listed as Homo sapiens) [compound 242] | + (<20% = +) |
| 27 (GLLGKVTSV; listed as Homo sapiens) [compound 27] | + (<20% = +) |
| 14 (YTFSGDVQL; listed as Homo sapiens) [compound 14] | + (<20% = +) |
| 246 (ALAGIVTNV; listed as Homo sapiens) [compound 246] | + (<20% = +) |
| 89 (SLAETIFIV; listed as Homo sapiens) [compound 89] | + (<20% = +) |
| 260 (ALNESLVEC; listed as Homo sapiens) [compound 260] | + (<20% = +) |
| 39 (YLEDGFAYV; listed as Homo sapiens) [compound 39] | ++++ (≥70% = ++++) |
| 101 (SLLEVNEASSV; listed as Homo sapiens) [compound 101] | + (<20% = +) |
| 102 (GLYPVTLVGV; listed as Homo sapiens) [compound 102] | + (<20% = +) |
| 255 (FLMKNSDLYGA; listed as Homo sapiens) [compound 255] | + (<20% = +) |
| 17 (GLLPSAESIKL; listed as Homo sapiens) [compound 17] | + (<20% = +) |
| 34 (TLNTLDINL; listed as Homo sapiens) [compound 34] | ++++ (≥70% = ++++) |
| 257 (KLIDHQGLYL; listed as Homo sapiens) [compound 257] | + (<20% = +) |
| 236 (KMSELQTYV; listed as Homo sapiens) [compound 236] | + (<20% = +) |
| 157 (ILQDGQFLV; listed as Homo sapiens) [compound 157] | + (<20% = +) |
| 66 (AMFPDTIPRV; listed as Homo sapiens) [compound 66] | + (<20% = +) |
| 77 (ALYGNVQQV; listed as Homo sapiens) [compound 77] | + (<20% = +) |
| 233 (SLFESLEYL; listed as Homo sapiens) [compound 233] | + (<20% = +) |
| 267 (YLLDMPLWYL; listed as Homo sapiens) [compound 267] | + (<20% = +) |
| 29 (KMISAIPTL; listed as Homo sapiens) [compound 29] | + (<20% = +) |
| 264 (TLHDQVHLL; listed as Homo sapiens) [compound 264] | + (<20% = +) |

same assay, conditions: percentage of positive donors; HLA-A*02 healthy donor CD8+ T cells, three stimulation cycles

| Substance | in vitro immunogenicity: donors |
| --- | --- |
| 288 (SLYKGLLSV; listed as Homo sapiens) [compound 288] | ++++ (≥70% = ++++) |

same assay, conditions: percentage of positive wells; HLA-A*02 healthy donor CD8+ T cells, three stimulation cycles

| Substance | in vitro immunogenicity: wells |
| --- | --- |
| 288 (SLYKGLLSV; listed as Homo sapiens) [compound 288] | ++ (20%-49% = ++) |
| 287 (KIQEILTQV; listed as Homo sapiens) [compound 287] | + (<20% = +) |
